Experimental data as given in patent US8501813B2, “γ-secretase inhibitor” (Kabushiki Kaisha Yakult Honsha, priority 2007, dated 2013).
Read-outs that look alike come from different tables or passages of the source. *: point of attachment. Boc = CC(C)(C)OC(=O)*

Assays:
[1] = biological target: T1, γ-secretase (Homo sapiens, UniProt P49768); assay: Substrate specificity: FLAG-Aβ secretion by HEK293 cells transfected with FLAG APP C99, anti-FLAG immunoprecipitation/western blot; type: cell-based; details: for (i) Aβ secretion rate of HEK293 cells: 24 h, FLAG APP C99, negative control = 100%
Description: (§1) Of families constituting human Alcadein (hereinafter, referred to as Alc) known as a substrate for γ-secretase to colocalize with APP in brain neurons, an artificial Alcα fragment (hereinafter, referred to as Alcα C150) whose first extracellular cleavage site and γ-secretase cleavage site were determined was used to study the substrate specificity of the γ-secretase inhibitor of the present invention. β-Alcα produced from a first cleavage construct of Alcα cannot be quantified by sELISA used in Aβ measurement. Therefore, proteins with an attached FLAG tag at the N termini of first cleavage constructs of Alcα and of C99 were expressed by cells. FLAG-Aβ-like peptides secreted into a medium were collected by immunoprecipitation using anti-FLAG antibodies and detected by western blotting using the antibodies. A specific method thereof is shown below.
(§2) HEK293 cells (ATCC) (1×10^7 cells/10 cm dish) cultured in 6 ml of 10% FCS-containing DMEM (Wako Pure Chemical Industries, Ltd.) were transfected with FLAG APP C99 pcDNA3.1 (the nucleotide sequence of its coding region is shown in SEQ ID NO: 2) (J. Biol. Chem., 2003, 278, 49448-49458 (which was prepared from pcDNA3-APPC99)) or with FLAG Alcα C150 pcDNA3.1 (the nucleotide sequence of its coding region is shown in SEQ ID NO: 3) (J. Biol. Chem., 2004, 279, 24343-24354 (which was the same as pcDNA3AlcαΔE)) using Lipofectamine 2000 (Invitrogen Corp.) according to the protocol included in the reagent. Each inhibitor and a positive control (γ-Secretase Inhibitor IX (DAPT)) (Calbiochem Contact Information) were separately added at a concentration of 0.2 or 2 μmol/L. The same dose of DMSO (Wako Pure Chemical Industries, Ltd.) thereas was added as a negative control. 24 hours later, the culture supernatants were collected, and samples were preliminarily purified using beads (100 μL of 50% (v/v) Protein-G Sepharose (GE Healthcare)). Then, 15 μL of 50% (v/v) anti-FLAG antibody M2 beads (Sigma-Aldrich Corp.) were added thereto, and the samples were incubated at 4° C. for 1 hour. The beads were collected by centrifugation and washed three times with a buffer (10 mM Tris-HCl [pH 8.0], 140 mM NaCl, 0.1% n-octyl glucoside, 0.025% sodium azide), and Aβ and β-Alcα in the medium were collected. The proteins were subjected to SDS-PAGE using a 15% Tris-Tricine gel (Anal Biochem., 1987, 166 (2), 368-379) and then transferred to a membrane. The membrane was boiled for 5 minutes in PBS. Then, anti-FLAG M2 antibodies (5 μg/ml) (Sigma-Aldrich Corp.) were added thereto, and the membrane was incubated, followed by detection using a western blotting detection reagent ECL (GE Healthcare). This signal was quantified using Versa-doc system (Bio-Rad Laboratories, Inc.) to calculate protein secretion rates (the protein secretion rate of the negative control is defined as 100%).

[2] = biological target: T1, γ-secretase; assay: Substrate specificity: β-Alcα secretion by HEK293 cells transfected with FLAG Alcα C150, anti-FLAG immunoprecipitation/western blot; type: cell-based; details: for (ii) β-Alcα secretion rate of HEK293 cells: 24 h, FLAG Alcα C150, negative control = 100%
Description: as §1, §2

[3] = biological target: T1, γ-secretase; assay: Aβ secretion by C99 cells (HEK293 stably expressing APP-C99), γ-secretase inhibitory effect, Aβ ELISA of culture supernatant; type: cell-based; details: for IC50: interpolated from the two concentrations that bracket 50%
Excerpt: HEK293 cells (ATCC) were transfected with APP C99 pcDNA3.1 (the nucleotide sequence of its coding region is shown in SEQ ID NO: 1) (J. Biol. Chem., 2003, 278, 49448-49458). Cell strains (C99 cells) confirmed to stably express APP-C99 (artificial APP fragment that originally lacked a polypeptide portion to be cleaved by α- or β-secretase at the first stage in the two-stage reaction of Aβ production from APP) were used to study the γ-secretase inhibitory effects of four test substances (TLVM-5, TLVM-7, TLVM-8, and TLVM-9) in vitro.
(§3) In the present test, a medium used for the C99 cells was 500 mL of a Dulbecco's Modified Eagle's Medium (DMEM, Sigma-Aldrich Corp.) supplemented with 55 ml of fetal bovine serum (Biosource), 5.5 ml of MEM non-essential amino acids (Gibco), and 5.5 ml of penicillin/streptomycin (Gibco).
The C99 cells were suspended at a concentration of 5×10^4 cells/ml in the medium. The suspension was added at a concentration of 1 ml (5×10^4 cells)/well to a 24-well collagen plate (Akita Sumitomo Bakelite Co., Ltd.) and cultured for 3 days. Then, the medium in the wells was removed, and the wells were washed with a medium (1 ml/well). The medium was removed, and a fresh medium was then added thereto at a concentration of 0.4 ml/well. The cells were exposed to the test substances and positive controls and incubated for 24 hours, and the culture supernatants were collected. The positive controls used were L-685,458 (CALBIOCHEM) and Boc-Leu-Val-Met-Leu-OMe (hereinafter, referred to as LVML-1) disclosed in Example 1 of Patent Document 1 (WO03/091278). The exposure concentrations were set to four concentrations, 0.3, 1, 3, and 10 μmol/L, for all the test substances and the positive controls. The concentrations of Aβ (1-40) and Aβ (1-42) in the culture supernatants were measured using Human Amyloid β (1-40) (N) Assay Kit (L)-IBL and Human Amyloid β (1-42) (N) Assay Kit (L)-IBL (Immuno-Biological Laboratories, Co., Ltd.). The amounts of Aβ (1-40) and Aβ (1-42) secreted were calculated by subtracting the concentrations of Aβ (1-40) and Aβ (1-42) originally contained in the medium before the C99 cell inoculation, from the measured concentrations thereof, respectively. Moreover, when the Aβ secretion rate of a negative control (5% DMSO-containing medium, resulting in 1% DMSO at the final concentration) is defined as 100%, Aβ secretion rates at each concentration of the test substances and the positive controls were calculated.
The TLVM-5, TLVM-7, TLVM-8, and TLVM-9 confirmed in Example 8 to have strong inhibitory activities against γ-secretase activities were subjected to an additional experiment at low concentrations (exposure concentrations were set to three concentrations, […], for the test substances and to four concentrations, 0.1, 0.3, 1, and 3 μmol/L, for the positive control).
Moreover, Aβ secretion rates at two concentrations of the test substance that bracket the concentration at which Aβ secretion was inhibited by 50% (IC50) were used to calculate IC50 according to the following equation: IC50:10^[LOG(A/B)*(50−C)/(D−C)+LOG(B)],wherein
A: of the two points that bracket 50% inhibition, the higher concentration of the test substance,
B: of the two points that bracket 50% inhibition, the lower concentration of the test substance,
C: secretion rate (%) at the concentration B, and
D: secretion rate (%) at the concentration A.

[4] = test system: C99 cells; assay: Cytotoxicity on C99 cells, cell viability by Cell Counting Kit-8; type: cell-based, human; details: 24 h
Description: The cytotoxicity of four test substances (TLVM-5, TLVM-7, TLVM-8, and TLVM-9) on the C99 cells was measured using a method shown below.
as §3
The C99 cells were suspended at a concentration of 0.75×10^5 cells/ml in the medium. The suspension was added at a concentration of 100 μL (0.75×10^4 cells)/well to a 96-well collagen plate (Akita Sumitomo Bakelite Co., Ltd.) and cultured for 2 days. Then, the medium (corresponding to 50 μL/well) in the wells was removed, and a fresh medium was added thereto at a concentration of 30 μL/well. […] Then, the cell viability was measured using Cell Counting Kit-8 (Dojindo Laboratories).

[5] = Example 8, exposure 0.3 μmol/L, 24 h
[6] = Example 8, exposure 0.3 μmol/L, 24 h, negative control = 100%
[7] = Example 8, exposure 1 μmol/L, 24 h
[8] = Example 8, exposure 3 μmol/L, 24 h
[9] = Example 8, exposure 10 μmol/L, 24 h

Compound | (i)/(ii) ratio, Aβ / β-Alcα secretion rates ([1]; 0.2 μmol/L) | (i) Aβ secretion rate of HEK293 cells ([1]; 0.2 μmol/L) | (i)/(ii) ratio, Aβ / β-Alcα secretion rates ([1]; 2 μmol/L) | (i) Aβ secretion rate of HEK293 cells ([1]; 2 μmol/L) | (ii) β-Alcα secretion rate of HEK293 cells ([2]; 0.2 μmol/L) | (ii) β-Alcα secretion rate of HEK293 cells ([2]; 2 μmol/L) | Aβ (1-42) secretion rate of C99 cells [3, 5] | Aβ [(1-40) + (1-42)] secretion rate of C99 cells [3, 5] | Aβ (1-40) secretion rate of C99 cells [3, 6] | Aβ (1-40) secretion rate of C99 cells [3, 7] | Aβ (1-42) secretion rate of C99 cells [3, 7] | Aβ [(1-40) + (1-42)] secretion rate of C99 cells [3, 7] | Aβ (1-40) secretion rate of C99 cells [3, 8] | Aβ (1-42) secretion rate of C99 cells [3, 8] | Aβ [(1-40) + (1-42)] secretion rate of C99 cells [3, 8] | Aβ (1-40) secretion rate of C99 cells [3, 9] | Aβ (1-42) secretion rate of C99 cells [3, 9] | Aβ [(1-40) + (1-42)] secretion rate of C99 cells [3, 9] | other results
C[C@H](NC(=O)Cc1cc(F)cc(F)c1)C(=O)N[C@H](C(=O)OC(C)(C)C)c1ccccc1 [DAPT, reference compound] | 0.35 | 8% | 1.26 | 20% | 23% | 16% |  |  |  |  |  |  |  |  |  |  |  |  | 
CC(C)C[C@H](NC(=O)[C@H](Cc1ccccc1)C[C@@H](O)[C@H](Cc1ccccc1)NC(=O)OC(C)(C)C)C(=O)N[C@@H](Cc1ccccc1)C(N)=O [L-685, 458, reference compound] |  |  |  |  |  |  | 96% | 101% | 101% | 68% | 70% | 68% | 38% | 49% | 39% | 9% | 24% | 9% | Aβ (1-40) secretion rate of C99 cells ([3]; Example 9, exposure 0.1 μmol/L): 114%; Aβ (1-42) secretion rate of C99 cells ([3]; Example 9, exposure 0.1 μmol/L): 97%; Aβ [(1-40) + (1-42)] secretion rate of C99 cells ([3]; Example 9, exposure 0.1 μmol/L): 113%; Aβ (1-40) secretion rate of C99 cells ([3]; Example 9, exposure 0.3 μmol/L): 90%; Aβ (1-42) secretion rate of C99 cells ([3]; Example 9, exposure 0.3 μmol/L): 91%; Aβ [(1-40) + (1-42)] secretion rate of C99 cells ([3]; Example 9, exposure 0.3 μmol/L): 90%; Aβ (1-40) secretion rate of C99 cells ([3]; Example 9, exposure 1 μmol/L): 72%; Aβ (1-42) secretion rate of C99 cells ([3]; Example 9, exposure 1 μmol/L): 87%; Aβ [(1-40) + (1-42)] secretion rate of C99 cells ([3]; Example 9, exposure 1 μmol/L): 73%; Aβ (1-40) secretion rate of C99 cells ([3]; Example 9, exposure 3 μmol/L): 32%; Aβ (1-42) secretion rate of C99 cells ([3]; Example 9, exposure 3 μmol/L): 8%; Aβ [(1-40) + (1-42)] secretion rate of C99 cells ([3]; Example 9, exposure 3 μmol/L): 31%; IC50 ([3]; Example 9, read-out: IC50, Aβ (1-40) secretion of C99 cells): 1800 nM; IC50 ([3]; Example 9, read-out: IC50, Aβ (1-42) secretion of C99 cells): 1700 nM; Cell viability of C99 cells ([4]; exposure 0.3 μmol/L): 133%; Cell viability of C99 cells ([4]; exposure 1 μmol/L): 125%; Cell viability of C99 cells ([4]; exposure 3 μmol/L): 110%; Cell viability of C99 cells ([4]; exposure 10 μmol/L): 99%
CSCC[C@H](NC(=O)[C@H](C)NC(=O)[C@H](CC(C)C)C[C@@H](O)[C@@H](NC(=O)OC(C)(C)C)[C@@H](C)O)C(=O)NCc1ccccc1 [TLVM-10, [5S-(tert-butoxycarbonylamino)-4R,6R-dihydroxy-2R-(2-methylpropyl)heptanoyl]-L-alanyl-L-methionine benzylamide] |  |  | 0.39 | 37% |  | 94% |  |  |  |  |  |  |  |  |  |  |  |  | cleavage of APP-C99, in words ([1]; 2 μmol/L): specifically inhibited; γ cleavage of the Alcα-C150, in words ([2]; 2 μmol/L): did not inhibit
CSCC[C@H](NC(=O)[C@@H](NC(=O)[C@H](CC(C)C)C[C@@H](O)[C@@H](NC(=O)OC(C)(C)C)[C@@H](C)O)c1ccccc1)C(=O)NCc1ccccc1 [TLVM-11, [5S-(tert-butoxycarbonylamino)-4R,6R-dihydroxy-2R-(2-methylpropyl)heptanoyl]-L-phenylglycyl-L-methionine benzylamide] | 0.12 | 8% |  |  | 68% |  |  |  |  |  |  |  |  |  |  |  |  |  | cleavage of APP-C99, in words ([1]; 0.2 μmol/L): specifically inhibited; γ cleavage of the Alcα-C150, in words ([2]; 0.2 μmol/L): did not inhibit
Boc-Leu-Val-Met-Leu-OMe (Boc-LVML-OMe; SMILES COC(=O)[C@H](CC(C)C)NC(=O)[C@H](CCSC)NC(=O)[C@@H](NC(=O)[C@H](CC(C)C)NC(=O)OC(C)(C)C)C(C)C) [LVML-1, reference compound] |  |  |  |  |  |  | 95% | 138% | 140% | 112% | 78% | 110% | 106% | 104% | 105% | 83% | 61% | 82% | 
